# Results from US8288421B2, “Phenylaminopyridines” (Basilea Pharmaceutica AG, priority 2004, dated 2012).
# Experiments:
# MRC5 [1] = test: MTS proliferation assay; type: cell-based; settings: MRC5, 72 h read-out
# Protocol: (§1) The assay is performed in 96 well tissue culture plates. The cells (range: 1.5*10^3-10^4) are seeded out in 80 μl complete medium 24 h prior to compound treatment. The test compounds are added in 20 μl complete medium containing max 5% DMSO. The final compound concentrations in the assays are in the range of 0.001 μM-10 μM. The assay plates are incubated for 72 h at culture conditions. The MTS reagent is prepared according to the manufacturer's protocol (Promega G1111). 20 μl MTS reagent are added to each well, the assay plates are quickly spun and incubated for another 3 h at culture conditions. Subsequently, the plates are shortly shaked and absorption measured with a microplate-reader at 492 nm. The scores A, B, C and D are explained at the end of the Table.
# Jily [2] = test: MTS proliferation assay; type: cell-based; settings: 72 h read-out
# Protocol: as §1
# Jurkat [3] = test: MTS proliferation assay; type: cell-based, human; settings: 72 h read-out
# Protocol: as §1
# HT1080 = test: MTS proliferation assay; type: cell-based, human; settings: HT1080, 72 h read-out
# Protocol: as §1
# HeLa [4] = test: MTS proliferation assay; type: cell-based, human; settings: 72 h read-out
# Protocol: as §1
# Jurkat [5] = test: Hoechst 33342 nuclear staining; type: cell-based, human; settings: 48 h read-out
# Protocol: (§2) This assay is performed in 96 well tissue culture plates. Appropriate number of cells (adherent cells: 3-5*10^3, suspension cells: 8-10*10^3) are being seeded out in 80 μl complete medium. Adherent cells are incubated for 24 h for proper spreading out before addition of test compounds while suspension cells are immediately treated with test compounds after seeding out. The test compounds are added in 20 μl complete medium containing max 5% DMSO. The final compound concentrations in the assays are in the range of 0.001 μM-10 μM. […] The assay plates are then further incubated for 30 minutes and subsequently analyzed with a standard inverted fluorescence microscope.
# (§3) The readout allows the determination of the fraction of apoptotic nuclei as well as other morphological criteria specific for apoptosis as a function of the treatment. The scores A, B, C and D are explained at the end of the Table.
# PBL [6] = test: Hoechst 33342 nuclear staining; type: cell-based, human; settings: 48 h read-out
# Protocol: as §2, §3
# HeLa [7] = test: Hoechst 33342 nuclear staining; type: cell-based, human; settings: 48 h read-out
# Protocol: as §2, §3
# DOHH2 = test: Mitochondrial membrane potential (JC-1); type: cell-based; settings: DOHH2, 48 h read-out
# Protocol: as §2, with “20 μal” for “20 μl”, “DMSO.” for “DMSO. The final compound concentrations in the assays are in the range of 0.001 μM-10 μM.”, “fluorescence microscope by using the FITC and TRITC filters.” for “fluorescence microscope.”
# (§4) The scores A, B, C and D are explained at the end of the Table.
# MRC5 [8] = test: Hoechst 33342 nuclear staining; type: cell-based; settings: MRC5, 48 h read-out
# Protocol: as §2, §3
# Jily [9] = test: Hoechst 33342 nuclear staining; type: cell-based; settings: 48 h read-out
# Protocol: as §2, §3
# Jurkat [10] = test: Mitochondrial membrane potential (JC-1); type: cell-based, human; settings: 48 h read-out
# Protocol: as §2, with “20 μal” for “20 μl”, “DMSO.” for “DMSO. The final compound concentrations in the assays are in the range of 0.001 μM-10 μM.”, “fluorescence microscope by using the FITC and TRITC filters.” for “fluorescence microscope.”
# as §4
# PBL [11] = test: Mitochondrial membrane potential (JC-1); type: cell-based, human; settings: 48 h read-out
# Protocol: as §2, with “20 μal” for “20 μl”, “DMSO.” for “DMSO. The final compound concentrations in the assays are in the range of 0.001 μM-10 μM.”, “fluorescence microscope by using the FITC and TRITC filters.” for “fluorescence microscope.”
# as §4
# MCF7 = test: Mitochondrial membrane potential (JC-1); type: cell-based, human; settings: MCF7, 48 h read-out
# Protocol: as §2, with “20 μal” for “20 μl”, “DMSO.” for “DMSO. The final compound concentrations in the assays are in the range of 0.001 μM-10 μM.”, “fluorescence microscope by using the FITC and TRITC filters.” for “fluorescence microscope.”
# as §4
# HeLa [12] = test: Mitochondrial membrane potential (JC-1); type: cell-based, human; settings: 48 h read-out
# Protocol: as §2, with “20 μal” for “20 μl”, “DMSO.” for “DMSO. The final compound concentrations in the assays are in the range of 0.001 μM-10 μM.”, “fluorescence microscope by using the FITC and TRITC filters.” for “fluorescence microscope.”
# as §4
SMILES,IC50 (MRC5 [1]) [nM],IC50 (Jily [2]) [nM],IC50 (Jurkat [3]) [nM],IC50 (HT1080) [nM],IC50 (HeLa [4]) [nM],EC50 (Jurkat [5]) [nM],EC50 (PBL [6]) [nM],EC50 (HeLa [7]) [nM],EC50 (DOHH2) [nM],EC50 (MRC5 [8]) [nM],EC50 (Jily [9]) [nM],EC50 (Jurkat [10]) [nM],EC50 (PBL [11]) [nM],EC50 (MCF7) [nM],EC50 (HeLa [12]) [nM]
COc1ccc(Nc2cncc(-c3cccc(NC(C)=O)c3)c2)cc1 [Example 8],> 1000,100 to 1000,100 to 1000,100 to 1000,100 to 1000,100 to 1000,> 1000,100 to 1000,100 to 1000,100 to 1000,100 to 1000,100 to 1000,> 1000,> 1000,100 to 1000
COc1ccc(Nc2cncc(-c3cccc(NC(=O)c4ccc(OC)cc4)c3)c2)cc1 [Example 9],> 1000,100 to 1000,100 to 1000,100 to 1000,100 to 1000,,,,10 to 100,,,10 to 100,> 1000,100 to 1000,100 to 1000
CCOc1ccccc1C(=O)Nc1cccc(-c2cncc(Nc3ccc(OC)cc3)c2)c1 [Example 10],100 to 1000,10 to 100,10 to 100,10 to 100,100 to 1000,10 to 100,> 1000,10 to 100,100 to 1000,> 1000,100 to 1000,10 to 100,> 1000,100 to 1000,100 to 1000
COc1ccc(Nc2cncc(-c3cccc(NC(=O)c4cnccn4)c3)c2)cc1 [Example 12],100 to 1000,10 to 100,< 10,10 to 100,10 to 100,10 to 100,> 1000,10 to 100,10 to 100,100 to 1000,10 to 100,10 to 100,> 1000,100 to 1000,100 to 1000
COc1ccc(Nc2cncc(-c3cccc(NC(=O)c4cccnc4)c3)c2)cc1 [Example 13],100 to 1000,10 to 100,10 to 100,100 to 1000,100 to 1000,100 to 1000,> 1000,100 to 1000,100 to 1000,> 1000,100 to 1000,10 to 100,> 1000,> 1000,100 to 1000
COc1ccc(Nc2cncc(-c3cccc(NC(=O)c4ccco4)c3)c2)cc1 [Example 14],100 to 1000,10 to 100,10 to 100,100 to 1000,100 to 1000,10 to 100,> 1000,100 to 1000,10 to 100,100 to 1000,10 to 100,10 to 100,> 1000,> 1000,100 to 1000
COc1ccc(Nc2cncc(-c3cccc(NC(=O)Cc4ccccc4)c3)c2)cc1 [Example 15],100 to 1000,100 to 1000,100 to 1000,100 to 1000,100 to 1000,100 to 1000,> 1000,100 to 1000,100 to 1000,> 1000,100 to 1000,10 to 100,> 1000,> 1000,100 to 1000
COc1ccc(Nc2cncc(-c3cccc(NC(=O)c4ccccn4)c3)c2)cc1 [Example 17],10 to 100,10 to 100,< 10,10 to 100,10 to 100,100 to 1000,> 1000,10 to 100,10 to 100,> 1000,10 to 100,10 to 100,> 1000,> 1000,10 to 100
COCC(=O)Nc1cccc(-c2cncc(Nc3ccc(OC)cc3)c2)c1 [Example 41],,,,,,100 to 1000,100 to 1000,100 to 1000,100 to 1000,> 1000,100 to 1000,100 to 1000,100 to 1000,100 to 1000,100 to 1000
